According to BigSolDB 2.1:

CCc1nnc(NC(=O)c2ccc([N+](=O)[O-])cc2)s1
solubility (mole fraction)
Conditions	288.15 K	293.15 K	298.15 K	303.15 K	308.15 K	313.15 K	318.15 K
in ethanol	2.81e-05	3.17e-05	3.91e-05	4.87e-05	5.95e-05	7.34e-05	8.87e-05
in n-hexane	6.2e-06	7.4e-06	9.5e-06	1.19e-05	1.44e-05	1.79e-05	2.11e-05
in n-octanol	4.34e-05	5.22e-05	6.52e-05	8.06e-05	9.61e-05	0.000118	0.00014
